Where two headings read alike, the source gives them in different places. One block for each compound: values may come before it.
Tests used:
[1] = biological target: T1, human MR1 (Homo sapiens, UniProt Q95460, C283S); assay: Refolding of MR1 and β2m with ligand; format: binding
T1 construct: Soluble human MR1 a.a; made in house

[2] = test system: SKW.MAIT cells; assay: Activation of wild-type, Y95A or Y95F mutant SKW.MAIT cells with C1R cells; format: cell-based; conditions: compound added to C1R cells
Excerpt: FIG. 4 is a graph showing MR1-Ag tetramers and MAIT activation. […] (c) EICs of m/z 315.09, or m/z 317.10. (d) (i) Activation assay and (ii) MR1 upregulation with 5-A-RU, methylglyoxal (MG), butane-2,3-dione (BD), glyoxal (G), or rRL-6-CH2OH. MFI of 26.5-PE antibody staining (e) (i) CD69 upregulation and (ii) MR1 upregulation with 5-A-RU, MG, BD, or G. MFI of 26.5-PE. (f) Activation of wild-type, Y95A, or Y95F mutant SKW.MAIT cells by 5-A-RU. Mean of triplicates with SEM. Experiments were performed at least twice (b, c, f) or 3 times (a, d, e).
Jurkat cells transduced with genes encoding a MAIT TCR comprising the TRAV1-2-TRAJ33 invariant α chain, and a TRBV6-1 β chain, or SKW cells transduced with genes encoding the TRAV1-2-TRAJ33 invariant α chain with either w.t. Tyr95 or mutated Tyr95Ala or Tyr95Phe residues, paired with a TRBV6-1 β chain, were tested for activation by co-incubation with bacterial culture supernatant or compounds and C1R antigen presenting cells expressing MR1 (CIR.MR1, with Jurkat.MAIT cells), or C1R cells (SKW.MAIT cells) for 16 hr. […] Activation of Jurkat.MAIT or SKW.MAIT cells was measured by an increase in surface CD69 expression. MR1 expression was detected on gated C1R.MR1 cells in the same assay.

[3] = test system: C1R.MR1 cells; assay: Detection of MR1 expression on C1R.MR1 cells (mAb 26.5 staining); format: cell-based; conditions: for MR1 upregulation compared to 5-A-RU added by itself: compound added with 5-A-RU to C1R.MR1 cells
Protocol: (§1) Jurkat cells transduced with genes encoding a MAIT TCR comprising the TRAV1-2-TRAJ33 invariant α chain, and a TRBV6-1 β chain, or SKW cells transduced with genes encoding the TRAV1-2-TRAJ33 invariant α chain with either w.t. Tyr95 or mutated Tyr95Ala or Tyr95Phe residues, paired with a TRBV6-1 β chain, were tested for activation by co-incubation with bacterial culture supernatant or compounds and C1R antigen presenting cells expressing MR1 (CIR.MR1, with Jurkat.MAIT cells), or C1R cells (SKW.MAIT cells) for 16 hr. Cells were subsequently stained with PE-Cy7-conjugated anti-CD3 (eBioscience), and APC-conjugated anti-CD69 (BD) antibodies as well as biotinylated anti-MR1 mAb 26.5 (Huang S. et al (2005)), followed by Streptavidin-PE (BD), before analysis by flow cytometry. Activation of Jurkat.MAIT or SKW.MAIT cells was measured by an increase in surface CD69 expression. MR1 expression was detected on gated C1R.MR1 cells in the same assay.

[4] = test system: Jurkat.MAIT cells; assay: Activation of Jurkat.MAIT cells (CD69 upregulation) co-incubated with C1R.MR1 cells; format: cell-based; conditions: for Jurkat.MAIT activation compared to 5-A-RU added by itself: compound added with 5-A-RU to C1R.MR1 cells
Protocol: as §1

[5] = for half-life: buffer
Protocol: FIG. 7 is a graph showing stability of 5-OP-RU (a) Reaction between 5-A-RU (0.5 mM) and methylglyoxal (3 eq) at pH 6.8, 37° C. in MilliQ water. RL-6-Me represents 6-methyl-8-D-ribityllumazine. (b) Stability of purified 5-OP-RU (65 μM) at pH 6.8 and 37° C. […] (c) Stability of purified 5-OP-RU (65 μM) at variable pH in aqueous TBS buffer (10 mM Tris, 150 mM NaCl, pH 8.0), MilliQ water (pH 6.8), or ammonium acetate buffer (20 mM, pH 5.4) at 15° C.
The purified 5-OP-RU was dissolved in aqueous TBS buffer (10 mM Tris, 150 mM NaCl, pH 8.0), MilliQ water (pH 6.8), or aqueous ammonium acetate buffer (20 mM, pH 5.4). The consumption of 5-OP-RU was immediately monitored by LCMS. The initial concentration was quantified by comparing to a standard solution of known concentration.

[6] = test system: MR1; assay: Crystal structure of MAIT TCR-MR1-Ag complexes; format: binding, human
Protocol: Crystals of the soluble MAIT TCR-MR1-Ag complexes were obtained using the hanging drop vapour diffusion method. The MR1-2M-5-OP-RU, MR1-2M-5-OE-RU, MR1, MR1-K43A-2M-5-OP-RU and MAIT TCR were concentrated to 4 mg/ml, mixed in a 1:1 molar ratio, then […] of a precipitant solution consisting 0.1 M bis-tris propane pH 6.3, 0.2 M sodium acetate and varying concentrations of PEG 3350 between 8-14% w/v. Crystals were observed after incubation at 20° C. for 24 hours in dark conditions and cryoprotected prior to diffraction experiments by soaking in the crystallisation condition modified with between 10-15% v/v glycerol before cooling to 100K. Diffraction images were collected at the Australian Synchrotron MX2 beamline diffracting in a C2 spacegroup to 2.50 Å, 2.10 Å and 2.20 Å for the MR1-2M-5-OP-RU, MR1-2M-5-OE-RU, and MR1-K43A-2M-5-OP-RU complexes with the MAIT TCR respectively. The data were processed using Mosflm version 7.0.9 and scaled using AIMLESS or SCALA (MR1-K43A-2M-5-OP-RU only) from the CCP4 Suite. The phase problem was solved by molecular replacement using PHASER (McCoy A. J. (2007)), using MR1 ternary complex (PDB code 4L4T) (Patel O. et al (2013)) with CDR loops and ligands removed and using the Rfree reflection set from the model. […]

[7] = test system: MAIT cells; assay: MAIT cell accumulation in lungs after intranasal S. Typhimurium infection; format: in vivo, mice; conditions: with BR509ΔribDH (10^7) i.n.; 200 μl of 1.52 μM i.v. at d1, d3, d5; day 7 post infection
[8] = test system: MR1; conditions: cited from earlier work
[9] = compound added alone to C1R.MR1 cells

MR1-ligand complex on refolding MR1 with the compound alone [1]: undetectable
Compound: Nc1c(NC[C@H](O)[C@H](O)[C@H](O)CO)[nH]c(=O)[nH]c1=O [5-A-RU, 5-amino-6-D-ribitylaminouracil]
recognition by SKW.MAIT cells with Tyr95α mutated to Ala95 or Phe95 [2]: ablated recognition | MR1 cell surface upregulation [3, 9]: MR1 cell surface upregulation | activation of Jurkat.MAIT cells [4, 9]: activation of Jurkat.MAIT cells

stability (in words) [5]: relatively unstable | binding mode in the MR1 cleft [6]: formed a Schiff base with Lys43 of MR1
Compound: O=CC=Nc1c(NC[C@H](O)[C@H](O)[C@H](O)CO)[nH]c(=O)[nH]c1=O [5-OE-RU, 5-(2-oxoethylideneamino)-6-D-ribitylaminouracil]

Compound: CC(=O)C=Nc1c(NC[C@H](O)[C@H](O)[C@H](O)CO)[nH]c(=O)[nH]c1=O [5-OP-RU, 5-(2-oxopropylideneamino)-6-D-ribitylaminouracil]
half-life ([5]; pH 5.4): 49 min | half-life ([5]; pH 6.8): around 2 h | binding mode in the MR1 cleft [6]: formed a Schiff base with Lys43 of MR1 | accumulation of MAIT cells in lungs [7]: accumulation is observed

Compound: Cc1nc2c(=O)[nH]c(=O)nc-2n(C[C@H](O)[C@H](O)[C@H](O)CO)c1O [RL-6-Me-7-OH, 7-hydroxy-6-methyl-8-D-ribityllumazine]
binding mode in the MR1 cleft [8]: non-covalently bound within MR1

MR1-Ag complex on refolding MR1 in the presence of 5-A-RU and the compound [1]: failed to yield any MR1-Ag complexes
Compound: CC(=O)C(C)=O [butane-2,3-dione]
MR1 upregulation compared to 5-A-RU added by itself [3]: not enhanced | Jurkat.MAIT activation compared to 5-A-RU added by itself [4]: nor was there an increase in Jurkat.MAIT activation

Compound: O=CC=O [glyoxal]
MR1-Ag complex on refolding MR1 in the presence of 5-A-RU and the compound [1]: led to a correctly folded MR1-Ag complex | MR1 upregulation compared to 5-A-RU added by itself [3]: further increase in MR1 upregulation | Jurkat.MAIT activation compared to 5-A-RU added by itself [4]: increase in Jurkat.MAIT activation

MR1-Ag complex on refolding MR1 in the presence of 5-A-RU and the compound [1]: led to a correctly folded MR1-Ag complex
Compound: CC(=O)C=O [methylglyoxal]
MR1 upregulation compared to 5-A-RU added by itself [3]: further increase in MR1 upregulation | Jurkat.MAIT activation compared to 5-A-RU added by itself [4]: increase in Jurkat.MAIT activation

Compound: Cc1cc2nc3c(=O)[nH]c(=O)nc-3n(C[C@H](O)[C@H](O)[C@H](O)CO)c2cc1C [riboflavin]
effect of riboflavin added during culture of NZ9000 on MAIT cell activation by the supernatant ([4]; L. lactis NZ9000 supernatant, 3 μg/ml riboflavin): inhibited MAIT cell activation

Compound: reduced 6-hydroxymethyl-8-D-ribityllumazine [rRL-6-CH2OH]
recognition by SKW.MAIT cells with Tyr95α mutated to Ala95 or Phe95 [2]: ablated recognition

— US10245262B2, “Immunological reagents and uses therefor” (THE UNIVERSITY OF QUEENSLAND, priority 2014, dated 2019)
